What was measured:
[1] = biological target: CRBN/DDB1 (Homo sapiens (Human), UniProt Q96SW2); experiment: IC50 measurements for binding to CRBN/DDB1 (HTRF); settings: His tagged CRBN+DDB, Cy5-labeled Thalidomide probe, one hour
Procedure, shortened: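 HTRF competition binding with 2 nM His-tagged CRBN-DDB1 complex, 60 nM Cy5-thalidomide probe and 0.4 nM anti-His Tb cryptate in 50 mM HEPES pH 7.5, 1 mM TCEP, 0.01% Brij-35, 50 mM NaCl, 0.1% BSA. Read after 1 h at room temperature; IC50 from four-parameter dose-response fit.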

[2] = biological target: T1, IKZF2 (Homo sapiens (Human), UniProt Q96SW2+Q9UKS7); experiment: In vitro IKZF2 FACS Assay in Jurkat cells; assay type: cell-based; settings: 24 hrs; for DC50: half maximal degradation concentration; for Dmax: maximal degradation percentage
Method: In vitro IKZF2 FACS Assay
DC50, A: <1 nM; B: 1-10 nM; C: 10-100 nM; D: 100-1000 nM; E: >1000 nM. Dmax, A: >80%; B: 60-80%; C: 40-60%; D: 20-40%; E: <20%.

[3] = biological target: T1, IKZF2; experiment: In vitro IKZF2 HiBit Assay (HEK293T Flp-in-HiBiT cells); assay type: cell-based; settings: HEK293T Flp-in-HiBiT cells, 6 hrs incubation; for DC50: read-out: IKZF2 HiBit DC50; for Dmax: HEK-293T, read-out: IKZF2 HiBit Dmax (%)
Procedure, shortened: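 HEK293T Flp-in cells carrying an endogenous N-terminal HiBiT tag on IKZF2 were exposed to compound for 6 h at 0.1% DMSO. The dilution series was 11 doses at 3-fold, diluted from 1 mM. Nano-Glo HiBiT lytic luminescence, normalized to DMSO, gave DC50 for 50% degradation and Dmax across the concentration range, both reported in letter bins.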

[4] = biological target: IKZF1 (Homo sapiens (Human), UniProt Q13422+Q96SW2); experiment: In vitro IKZF1 HiBit Assay (HEK293T Flp-in-HiBiT-IKZF1 stable cell line); assay type: cell-based; settings: HEK293T Flp-in-HiBiT-IKZF1 stable cell line, 6 hrs incubation; for DC50: read-out: IKZF1 HiBit DC50; for Dmax: HEK-293T, read-out: IKZF1 HiBit Dmax (%)
Procedure, shortened: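 HEK293T Flp-in cells carrying N-terminal HiBiT-tagged IKZF1 were exposed to compound (0.1% DMSO) for 6 h at 3000 cells/well. HiBiT luminescence was read after lytic LgBiT detection. DC50 and Dmax were taken from DMSO-normalized dose-response curves.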

T1 sequence (Q9UKS7 whole entry): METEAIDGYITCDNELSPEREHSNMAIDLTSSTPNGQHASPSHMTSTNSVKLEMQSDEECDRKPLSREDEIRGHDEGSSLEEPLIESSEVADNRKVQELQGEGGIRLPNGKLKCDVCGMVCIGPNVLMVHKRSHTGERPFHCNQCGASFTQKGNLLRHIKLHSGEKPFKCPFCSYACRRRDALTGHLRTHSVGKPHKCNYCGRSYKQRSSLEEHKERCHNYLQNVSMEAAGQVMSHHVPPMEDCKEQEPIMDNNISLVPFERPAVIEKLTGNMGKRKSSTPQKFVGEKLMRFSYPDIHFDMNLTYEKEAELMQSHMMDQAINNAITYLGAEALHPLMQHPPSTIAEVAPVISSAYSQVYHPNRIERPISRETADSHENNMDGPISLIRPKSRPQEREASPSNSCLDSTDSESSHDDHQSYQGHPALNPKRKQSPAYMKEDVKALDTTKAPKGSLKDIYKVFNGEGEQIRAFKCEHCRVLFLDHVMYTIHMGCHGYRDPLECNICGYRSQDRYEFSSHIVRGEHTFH
T1 sequence (Q96SW2 whole entry): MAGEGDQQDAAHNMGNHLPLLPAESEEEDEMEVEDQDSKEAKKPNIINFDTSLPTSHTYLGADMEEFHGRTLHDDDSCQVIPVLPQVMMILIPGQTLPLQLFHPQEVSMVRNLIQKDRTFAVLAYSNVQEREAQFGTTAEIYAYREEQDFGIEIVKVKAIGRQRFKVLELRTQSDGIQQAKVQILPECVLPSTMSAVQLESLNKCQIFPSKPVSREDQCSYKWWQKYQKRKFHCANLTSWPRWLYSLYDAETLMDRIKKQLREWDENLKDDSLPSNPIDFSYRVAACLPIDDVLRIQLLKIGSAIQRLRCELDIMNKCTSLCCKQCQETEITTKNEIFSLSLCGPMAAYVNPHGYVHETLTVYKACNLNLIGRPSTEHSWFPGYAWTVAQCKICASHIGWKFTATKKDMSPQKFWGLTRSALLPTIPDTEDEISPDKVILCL
T1 sequence (Q16531 2-1140 partner): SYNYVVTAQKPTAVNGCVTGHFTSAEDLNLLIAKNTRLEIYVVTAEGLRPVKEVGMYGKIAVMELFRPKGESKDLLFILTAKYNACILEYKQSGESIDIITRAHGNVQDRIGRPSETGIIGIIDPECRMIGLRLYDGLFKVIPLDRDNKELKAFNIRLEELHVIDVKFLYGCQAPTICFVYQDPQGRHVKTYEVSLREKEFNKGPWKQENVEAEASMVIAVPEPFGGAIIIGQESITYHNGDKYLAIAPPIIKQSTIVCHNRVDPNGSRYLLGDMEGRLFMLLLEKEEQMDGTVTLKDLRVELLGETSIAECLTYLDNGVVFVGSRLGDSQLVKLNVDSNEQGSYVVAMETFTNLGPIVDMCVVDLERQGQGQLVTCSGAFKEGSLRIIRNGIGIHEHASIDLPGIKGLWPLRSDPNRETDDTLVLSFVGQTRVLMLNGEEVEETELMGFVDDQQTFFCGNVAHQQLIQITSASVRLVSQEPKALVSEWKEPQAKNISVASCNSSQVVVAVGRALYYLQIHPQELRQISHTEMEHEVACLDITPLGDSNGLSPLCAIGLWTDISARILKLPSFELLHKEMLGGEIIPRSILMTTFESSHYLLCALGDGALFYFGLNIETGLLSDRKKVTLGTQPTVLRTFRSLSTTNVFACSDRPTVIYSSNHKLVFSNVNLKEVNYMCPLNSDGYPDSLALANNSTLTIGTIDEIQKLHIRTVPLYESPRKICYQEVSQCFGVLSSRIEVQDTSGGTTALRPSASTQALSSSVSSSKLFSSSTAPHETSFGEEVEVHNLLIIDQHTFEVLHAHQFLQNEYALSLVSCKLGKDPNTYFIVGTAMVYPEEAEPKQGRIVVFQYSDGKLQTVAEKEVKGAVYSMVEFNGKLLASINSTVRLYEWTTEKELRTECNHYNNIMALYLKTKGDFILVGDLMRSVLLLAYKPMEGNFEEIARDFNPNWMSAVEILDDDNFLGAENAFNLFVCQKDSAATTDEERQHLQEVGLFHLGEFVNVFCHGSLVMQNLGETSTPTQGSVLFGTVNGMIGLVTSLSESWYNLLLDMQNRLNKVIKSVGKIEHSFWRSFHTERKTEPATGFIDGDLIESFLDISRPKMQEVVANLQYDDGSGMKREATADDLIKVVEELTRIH
IKZF1, sequence (Q13422 whole entry): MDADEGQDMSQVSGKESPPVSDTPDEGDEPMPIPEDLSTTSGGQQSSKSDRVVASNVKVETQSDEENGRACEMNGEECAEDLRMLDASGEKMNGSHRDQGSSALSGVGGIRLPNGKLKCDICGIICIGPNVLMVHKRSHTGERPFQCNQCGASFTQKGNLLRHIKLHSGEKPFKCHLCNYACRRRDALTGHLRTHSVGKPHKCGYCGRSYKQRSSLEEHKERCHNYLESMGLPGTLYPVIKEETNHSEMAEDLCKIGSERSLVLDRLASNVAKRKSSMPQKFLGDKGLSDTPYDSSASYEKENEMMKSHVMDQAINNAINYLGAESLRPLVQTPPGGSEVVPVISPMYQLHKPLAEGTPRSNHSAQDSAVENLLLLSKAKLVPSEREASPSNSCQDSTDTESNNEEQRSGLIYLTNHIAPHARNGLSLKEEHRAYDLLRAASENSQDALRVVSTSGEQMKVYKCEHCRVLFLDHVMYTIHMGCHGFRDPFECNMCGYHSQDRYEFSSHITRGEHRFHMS
IKZF1, sequence (Q96SW2 whole entry): as the sequence (Q96SW2 whole entry) above
IKZF1, sequence (Q16531 2-1140 partner): as the sequence (Q16531 2-1140 partner) above
CRBN/DDB1, sequence (Q96SW2 whole entry, species assumed): as the sequence (Q96SW2 whole entry) above
CRBN/DDB1, sequence (Q16531 whole entry partner, species assumed): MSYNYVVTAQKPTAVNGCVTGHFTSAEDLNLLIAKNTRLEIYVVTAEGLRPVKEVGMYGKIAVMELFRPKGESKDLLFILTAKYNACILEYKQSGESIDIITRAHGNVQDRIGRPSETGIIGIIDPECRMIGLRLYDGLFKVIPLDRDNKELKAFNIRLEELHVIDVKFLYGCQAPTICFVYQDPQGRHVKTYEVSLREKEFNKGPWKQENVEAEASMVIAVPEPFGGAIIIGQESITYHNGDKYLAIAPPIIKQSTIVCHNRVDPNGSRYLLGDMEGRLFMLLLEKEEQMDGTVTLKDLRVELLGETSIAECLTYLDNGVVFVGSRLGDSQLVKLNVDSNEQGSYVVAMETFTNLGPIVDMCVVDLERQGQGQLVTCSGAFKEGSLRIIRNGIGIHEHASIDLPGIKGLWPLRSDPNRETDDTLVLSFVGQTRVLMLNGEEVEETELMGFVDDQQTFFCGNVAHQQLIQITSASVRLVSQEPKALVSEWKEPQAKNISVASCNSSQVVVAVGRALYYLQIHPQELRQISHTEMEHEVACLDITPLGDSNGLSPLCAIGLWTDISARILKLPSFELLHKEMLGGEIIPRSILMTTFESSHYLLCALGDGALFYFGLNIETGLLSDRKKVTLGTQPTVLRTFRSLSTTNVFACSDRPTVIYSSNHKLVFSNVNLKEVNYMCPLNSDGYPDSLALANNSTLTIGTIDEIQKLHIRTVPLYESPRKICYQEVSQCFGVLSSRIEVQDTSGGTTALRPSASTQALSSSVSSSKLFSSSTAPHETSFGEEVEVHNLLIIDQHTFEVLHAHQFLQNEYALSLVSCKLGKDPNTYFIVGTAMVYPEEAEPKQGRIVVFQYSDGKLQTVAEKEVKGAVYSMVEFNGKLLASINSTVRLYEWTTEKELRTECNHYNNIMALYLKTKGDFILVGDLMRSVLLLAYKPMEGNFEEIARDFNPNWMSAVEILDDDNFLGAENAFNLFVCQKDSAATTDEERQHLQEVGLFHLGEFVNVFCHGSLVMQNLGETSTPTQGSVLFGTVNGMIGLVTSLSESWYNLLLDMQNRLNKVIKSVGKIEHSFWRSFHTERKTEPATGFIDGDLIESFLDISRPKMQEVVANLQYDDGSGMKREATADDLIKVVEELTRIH

Row | Compound | IC50 [1] | DC50 [2] | Dmax [2] | DC50 [3] | Dmax [3] | DC50 [4] | Dmax [4]
1 | O=C1CCC(N2Cc3c(ccc(-c4cc(CN5CCCC5)c5ccn(C6CS(=O)(=O)C6)c5n4)c3F)C2=O)C(=O)N1 (centres unmarked) [Example 222, 3-(5-(1-(1,1-dioxidothietan-3-yl)-4-(pyrrolidin-1-ylmethyl)-1H-pyrrolo[2,3-b]pyridin-6-yl)-4-fluoro-1-oxoisoindolin-2-yl) piperidine-2,6-dione] | 100 to 500 nM | 1 to 10 nM | > 80% | 1 to 10 nM | > 80% | 10 to 100 nM | 20 to 40%
2 | COC1CCN(Cc2cc(-c3ccc4c(c3)CN(C3CCC(=O)NC3=O)C4=O)nc3c2ccn3C2COC2)CC1 (centres unmarked) [Example 189, 3-(5-(4-((4-methoxypiperidin-1-yl)methyl)-1-(oxetan-3-yl)-1H-pyrrolo[2,3-b]pyridin-6-yl)-1-oxoisoindolin-2-yl) piperidine-2,6-dione] | 100 to 500 nM | 1 to 10 nM | > 80% | 1 to 10 nM | > 80% | 10 to 100 nM | 20 to 40%
3 | O=C1CCC(N2Cc3cc(-c4cc(CN5CC(F)C5)c5cc[nH]c5n4)ccc3C2=O)C(=O)N1 (centres unmarked) [Example 117, 3-(5-(4-((3-fluoroazetidin-1-yl)methyl)-1H-pyrrolo[2,3-b]pyridin-6-yl)-1-oxoisoindolin-2-yl) piperidine-2,6-dione] | 100 to 500 nM | 1 to 10 nM | > 80% | 1 to 10 nM | > 80% | > 10000 nM | < 20%
4 | O=C1CCC(N2Cc3cc(-c4cc(CN5CCC(F)CC5)c5cc[nH]c5n4)ccc3C2=O)C(=O)N1 (centres unmarked) [Example 116, 3-(5-(4-((4-fluoropiperidin-1-yl)methyl)-1H-pyrrolo[2,3-b]pyridin-6-yl)-1-oxoisoindolin-2-yl) piperidine-2,6-dione] | 100 to 500 nM | 1 to 10 nM | > 80% | < 1 nM | > 80% | 1 to 10 nM | 20 to 40%
5 | Cn1cc2nc(-c3ccc4c(c3)CN(C3CCC(=O)NC3=O)C4=O)cc(CN3CCCC3)c2n1 (centres unmarked) [Example 314, 3-(5-(2-methyl-7-(pyrrolidin-1-ylmethyl)-2H-pyrazolo[4,3-b]pyridin-5-yl)-1-oxoisoindolin-2-yl) piperidine-2,6-dione] | 100 to 500 nM | 1 to 10 nM | > 80% | 1 to 10 nM | > 80% | 10 to 100 nM | 20 to 40%
6 | Nc1n[nH]c2c(CN3CCC(O)CC3)cc(-c3ccc4c(c3)CN(C3CCC(=O)NC3=O)C4=O)nc12 (centres unmarked) [Example 205, 3-(5-(3-amino-7-((4-hydroxypiperidin-1-yl)methyl)-1H-pyrazolo[4,3-b]pyridin-5-yl)-1-oxoisoindolin-2-yl) piperidine-2,6-dione] | 500 to 1000 nM | 100 to 1000 nM | 60 to 80% | 10 to 100 nM | 60 to 80% | 1000 to 10000 nM | 20 to 40%
7 | O=C1CCC(N2Cc3cc(-c4cc(CN5CCC(O)C5)c5ccn(C6COC6)c5n4)ccc3C2=O)C(=O)N1 (centres unmarked) [Example 158, 3-(5-(4-((3-hydroxypyrrolidin-1-yl)methyl)-1-(oxetan-3-yl)-1H-pyrrolo[2,3-b]pyridin-6-yl)-1-oxoisoindolin-2-yl) piperidine-2,6-dione] | 100 to 500 nM | 10 to 100 nM | > 80% | 10 to 100 nM | 60 to 80% | > 10000 nM | < 20%
8 | Nc1n[nH]c2c(CN3CCC(F)CC3)cc(-c3ccc4c(c3)CN(C3CCC(=O)NC3=O)C4=O)nc12 (centres unmarked) [Example 212, 3-(5-(3-amino-7-((4-fluoropiperidin-1-yl)methyl)-1H-pyrazolo[4,3-b]pyridin-5-yl)-1-oxoisoindolin-2-yl) piperidine-2,6-dione] | < 100 nM | 10 to 100 nM | > 80% | 1 to 10 nM | 60 to 80% | 1 to 10 nM | 20 to 40%
